Source: patent publication US7553837B2, “Phenylazole compounds production process and antioxidants” (Nippon Soda Co., Ltd., priority 2003, dated 2009)
pIC50: −log10 of the molar value.

Tests used:
[1] = system: lipid peroxidation activity of each tissue homogenate (brain, heart and kidney); experiment: Tissue migration properties: ex vivo lipid peroxidation inhibition in brain, heart and kidney homogenates; details: SD male rats, 100 mg/kg intraperitoneally, 30 minutes after administration
Protocol: An in vitro lipid peroxidation inhibition of the compounds of the present invention was evaluated by measuring a lipid peroxidation activity in a rat brain homogenate according to a process of Malvy, c., et al., Biochemical and Biophysical Research Communications, 1980, Vol. 95, p. 734-737. That is, a rat brain was extracted and a 5-fold amount of an aqueous phosphoric acid buffered saline solution (pH 7.4) (hereinafter abbreviated to PBS) was added to the brain under ice cooling, followed by homogenization using a Teflon homogenizer and further centrifugation at 10,000 g for 20 minutes to prepare a brain homogenate as a supernatant. To the brain homogenate thus prepared, 500 μM cysteine, 5 μM sulfuric acid monobasic iron and 100 mM KCl were added, followed by incubation at 37° C. for 30 minutes. Malondialdehyde produced by the […] of lipid peroxidation was measured by a thiobarbituric acid process.
Tissue migration properties of the compounds of the present invention were evaluated by measuring an ex vivo lipid peroxidation inhibition. A solution or suspension prepared by dissolving or suspending each of test compounds in an aqueous physiological saline solution or a 1% poly oxy ethylene hydrogenated castor oil (NIKKOL HCO-60, manufactured by Nikko Chemicals Co., Ltd.) physiological saline solution was intraperitoneally administered to SD male rats (one group: 3 rats, 6 weeks old) (available from Nippon SLC Co., Ltd.) at a dose of 100 mg/kg. 30 Minutes after administration, rats were bled to death by cutting the carotid artery and then the brain, heart and kidney were extracted. A lipid peroxidation activity of each tissue homogenate was measured by the process described in Example 18. An inhibition ratio in each tissue of the compounds of the present invention was determined from the amount of lipid peroxidation produced of a control group (physiological saline administration group) and a test compound administration group.

[2] = target: T1, 5-lipoxygenase (5-LO) (Homo sapiens, UniProt P09917); experiment: 5-lipoxygenase (5-LO) inhibitory activity, leukotriene B4 production in human peripheral blood mononuclear cells; type: cell-based; details: human peripheral blood mononuclear cells, A23187, leukotriene B4 production
T1 construct: human peripheral blood mononuclear cells and each of test compounds dissolved in DMSO (final concentration: 1%) were preincubated; endogenous in cells; host or cells: human peripheral blood mononuclear cells
T1 sequence (P09917 1-674): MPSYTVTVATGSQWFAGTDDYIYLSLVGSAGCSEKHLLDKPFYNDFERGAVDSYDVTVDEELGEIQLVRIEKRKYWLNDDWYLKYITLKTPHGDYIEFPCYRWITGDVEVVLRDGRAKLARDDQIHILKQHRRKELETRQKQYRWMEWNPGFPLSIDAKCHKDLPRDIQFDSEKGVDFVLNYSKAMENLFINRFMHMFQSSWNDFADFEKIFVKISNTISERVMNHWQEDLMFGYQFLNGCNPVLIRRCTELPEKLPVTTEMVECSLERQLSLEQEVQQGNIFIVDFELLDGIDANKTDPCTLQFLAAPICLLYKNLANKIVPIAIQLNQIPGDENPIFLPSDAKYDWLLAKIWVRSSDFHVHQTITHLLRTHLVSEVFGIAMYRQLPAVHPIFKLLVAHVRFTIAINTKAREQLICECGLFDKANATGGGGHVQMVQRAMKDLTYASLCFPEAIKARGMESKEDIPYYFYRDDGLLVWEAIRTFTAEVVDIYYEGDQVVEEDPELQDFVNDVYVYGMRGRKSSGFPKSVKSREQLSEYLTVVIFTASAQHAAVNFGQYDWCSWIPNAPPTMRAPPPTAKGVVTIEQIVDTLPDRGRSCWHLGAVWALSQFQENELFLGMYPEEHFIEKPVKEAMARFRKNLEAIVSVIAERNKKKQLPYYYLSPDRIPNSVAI
Protocol: A 5-LO inhibitory activity was measured by a partially modified process of a process of Carter et al. (Carter G. W, et al, J. Pharmacol. Exp. Ther.: 256, 929-37, 1991). That is, human peripheral blood mononuclear cells and each of test compounds dissolved in DMSO (final concentration: 1%) were preincubated (37° C., 15 minutes) in a Hanks' balanced salt solution and 30 μM A23187 was further added, followed by incubation (37° C., 30 minutes). The amount of leukotriene B4 produced as a result of incubation was determined by enzyme immunoassay and a 50% production inhibitory concentration (μM) against 5-LO of each test compound was calculated.

[3] = target: T2, 15-LO obtained from reticulocyte of rabbit (Oryctolagus cuniculus, UniProt P12530); experiment: 15-lipoxygenase (15-LO) inhibitory activity, 15-HETE production; type: biochemical; details: 15-LO from reticulocyte of rabbit, linoleic acid
T2 construct: 15-LO obtained from reticulocyte of rabbit; from tissue; host or cells: rabbit reticulocytes
T2 sequence (P12530 1-663): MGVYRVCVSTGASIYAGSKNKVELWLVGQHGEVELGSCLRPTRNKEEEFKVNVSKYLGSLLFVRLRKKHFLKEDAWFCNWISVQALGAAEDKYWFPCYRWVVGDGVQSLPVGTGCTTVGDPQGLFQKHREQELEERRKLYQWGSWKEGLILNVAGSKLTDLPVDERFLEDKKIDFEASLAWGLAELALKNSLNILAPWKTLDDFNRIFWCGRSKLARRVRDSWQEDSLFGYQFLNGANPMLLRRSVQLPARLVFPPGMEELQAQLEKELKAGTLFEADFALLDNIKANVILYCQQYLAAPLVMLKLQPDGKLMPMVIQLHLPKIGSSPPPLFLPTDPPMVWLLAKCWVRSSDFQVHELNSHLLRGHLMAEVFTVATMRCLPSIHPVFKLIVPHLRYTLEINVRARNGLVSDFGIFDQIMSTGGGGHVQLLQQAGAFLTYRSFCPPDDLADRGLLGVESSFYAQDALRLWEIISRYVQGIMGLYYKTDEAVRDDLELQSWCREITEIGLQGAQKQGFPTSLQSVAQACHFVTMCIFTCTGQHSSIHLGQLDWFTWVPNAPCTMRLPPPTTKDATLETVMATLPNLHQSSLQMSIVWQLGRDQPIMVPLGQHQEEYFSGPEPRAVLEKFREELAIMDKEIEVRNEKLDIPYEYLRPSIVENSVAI
Protocol: A 15-LO inhibitory activity was measured by a partially modified process of a process of Auerbach et al. (Auerbach B. J, et al., Anal. Biochem.: 201, 375-80, 1992). That is, 15-LO obtained from reticulocyte of rabbit and each of test compounds dissolved in DMSO (final concentration: 1%) were preincubated (4° C., 15 minutes) in phosphoric acid buffer (pH 7.4) and 256 μM linoleic acid was further added, followed by incubation (4° C., 10 minutes). The amount of 15-HETE produced as a result of incubation was determined by spectrophotometry (OD660nm) and 50% production inhibitory concentration (μM) against 15-LO of each test compound was calculated. Compounds (R-3) and (R-4) (edaravone) of the following formulas were used as a control drug.

[4] = Acute oral toxicity, single oral dose, mortality rate after 7 days; details: mouse, in vivo, male mice, observed for 7 days
Protocol: A single dose of each of the compounds of the present invention was orally administered to male mice. After observing for 7 days, a mortality rate was determined.

In the case of `Cc1c(C)c2c(c(C)c1N)CC(C)(CN1CCN(c3cccc(-n4ccnc4)c3)CC1)O2` (stereo not drawn) [Compound B-1-18], the “Ex vivo lipid peroxidation inhibition inhibition ratio (%) Brain” value ([1]; brain homogenate) was 77%, the “Ex vivo lipid peroxidation inhibition inhibition ratio (%) Heart” value ([1]; heart homogenate) was 88% and the “Ex vivo lipid peroxidation inhibition inhibition ratio (%) Kidney” value ([1]; kidney homogenate) was 89%. For the same compound, the pIC50 [2] was 5.59, the pIC50 [3] was 5.81 and the LD50 at 7 days [4] was > 1000 mg/kg.
